Experimental data taken from patent US20110039721A1, “METHOD FOR PREDICTION ABOUT CARCINOGENICITY OF SUBSTANCE IN RODENT” (Chemicals Evaluation and Research Institute, priority 2007, published 2011).

Key:
[1] = tested on: liver; details: classification of the substance (Cr+/Cr−); cited from earlier work
[2] = classification of the substance (M+/M−); cited from earlier work
[3] = tested on: mRNA expressed from the genes (A) to (D) in rat liver; assay: Behavior of genes (mRNA expression level, oligo-DNA microarray) in rat liver after 28-day oral administration; assay type: in vivo; details: mRNA vs vehicle control group
Procedure, shortened: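 Male F344 SPF rats, 5 weeks old, four per group, received carcinogens, non-carcinogens or solvent vehicle by oral gavage once daily for 28 days. Liver total RNA was then extracted. Changes of ≥1.5-fold or ≤1/1.5 versus vehicle control, in a consistent direction across carcinogens, counted as significant.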

[4] = tested on: rodent; details: classification of the substance (C+/C−); cited from earlier work
[5] = gene group (A), Unigene No. Rn.167075
[6] = gene group (C), Unigene No. Rn.120914

CCOC(=O)C(C)(C)Oc1ccc(Cl)cc1 [TS001, Clofibrate]
−: Behavior of gene caused by administration of chemical substance, Gene No. 4846 ([3]; gene group (A), Unigene No. Rn.144554) | Behavior of gene caused by administration of chemical substance, Gene No. 4218 [3, 5] | Behavior of gene caused by administration of chemical substance, Gene No. 5600 ([3]; gene group (A), Unigene No. Rn.9836) | Behavior of gene caused by administration of chemical substance, Gene No. 1334 [3, 6] | Behavior of gene caused by administration of chemical substance, Gene No. 6620 [3, 6] | Behavior of gene caused by administration of chemical substance, Gene No. 6303 ([3]; gene group (C), Unigene No. Rn.123063) | Behavior of gene caused by administration of chemical substance, Gene No. 5878 ([3]; gene group (C), Unigene No. Rn.143213) | Behavior of gene caused by administration of chemical substance, Gene No. 1131 ([3]; gene group (C), Unigene No. Rn.144946) | Behavior of gene caused by administration of chemical substance, Gene No. 1562 ([3]; gene group (C), Unigene No. Rn.14744) | Behavior of gene caused by administration of chemical substance, Gene No. 1741 ([3]; gene group (C), Unigene No. Rn.1647) | Behavior of gene caused by administration of chemical substance, Gene No. 6026 ([3]; gene group (C), Unigene No. Rn.167685) | Behavior of gene caused by administration of chemical substance, Gene No. 154 ([3]; gene group (C), Unigene No. Rn.185941) | Behavior of gene caused by administration of chemical substance, Gene No. 1993 ([3]; gene group (C), Unigene No. Rn.18728) | Behavior of gene caused by administration of chemical substance, Gene No. 2494 ([3]; gene group (C), Unigene No. Rn.23969) | Behavior of gene caused by administration of chemical substance, Gene No. 2546 ([3]; gene group (C), Unigene No. Rn.24561) | Behavior of gene caused by administration of chemical substance, Gene No. 3776 ([3]; gene group (C), Unigene No. Rn.43232) | Behavior of gene caused by administration of chemical substance, Gene No. 3929 ([3]; gene group (C), Unigene No. Rn.4620) | Behavior of gene caused by administration of chemical substance, Gene No. 1119 ([3]; gene group (C), Unigene No. Rn.9757) | Behavior of gene caused by administration of chemical substance, Gene No. 5634 ([3]; gene group (C), Unigene No. Rn.9862) | Behavior of gene caused by administration of chemical substance, Gene No. 5726 ([3]; gene group (D), Unigene No. Rn.9939)
M−: Mutagenicity by Ames test [2]
+: Behavior of gene caused by administration of chemical substance, Gene No. 2026 [3, 5] | Behavior of gene caused by administration of chemical substance, Gene No. 6182 ([3]; gene group (A), Unigene No. Rn.5834) | Behavior of gene caused by administration of chemical substance, Gene No. 1494 ([3]; gene group (B), Unigene No. Rn.1430) | Behavior of gene caused by administration of chemical substance, Gene No. 2045 ([3]; gene group (B), Unigene No. Rn.19329) | Behavior of gene caused by administration of chemical substance, Gene No. 2203 ([3]; gene group (B), Unigene No. Rn.21240) | Behavior of gene caused by administration of chemical substance, Gene No. 533 ([3]; gene group (C), Unigene No. Rn.106184) | Behavior of gene caused by administration of chemical substance, Gene No. 725 ([3]; gene group (C), Unigene No. Rn.108075) | Behavior of gene caused by administration of chemical substance, Gene No. 1163 ([3]; gene group (C), Unigene No. Rn.11766) | Behavior of gene caused by administration of chemical substance, Gene No. 4973 ([3]; gene group (C), Unigene No. Rn.118529) | Behavior of gene caused by administration of chemical substance, Gene No. 4095 ([3]; gene group (C), Unigene No. Rn.119024) | Behavior of gene caused by administration of chemical substance, Gene No. 893 ([3]; gene group (C), Unigene No. Rn.164817) | Behavior of gene caused by administration of chemical substance, Gene No. 813 ([3]; gene group (C), Unigene No. Rn.201760) | Behavior of gene caused by administration of chemical substance, Gene No. 6742 ([3]; gene group (C), Unigene No. Rn.9779)
C+: Carcinogenicity [4]
Cr+: Liver carcinogenicity [1]
